Our source for the Ki values is patent US6664247B2, “Pyrazole compounds useful as protein kinase inhibitors” (Vertex Pharmaceuticals Incorporated, priority 2000, dated 2003).

The target of the experiment is T1, Aurora-2 (Homo sapiens, UniProt O14965).
T1 sequence (O14965 1-403): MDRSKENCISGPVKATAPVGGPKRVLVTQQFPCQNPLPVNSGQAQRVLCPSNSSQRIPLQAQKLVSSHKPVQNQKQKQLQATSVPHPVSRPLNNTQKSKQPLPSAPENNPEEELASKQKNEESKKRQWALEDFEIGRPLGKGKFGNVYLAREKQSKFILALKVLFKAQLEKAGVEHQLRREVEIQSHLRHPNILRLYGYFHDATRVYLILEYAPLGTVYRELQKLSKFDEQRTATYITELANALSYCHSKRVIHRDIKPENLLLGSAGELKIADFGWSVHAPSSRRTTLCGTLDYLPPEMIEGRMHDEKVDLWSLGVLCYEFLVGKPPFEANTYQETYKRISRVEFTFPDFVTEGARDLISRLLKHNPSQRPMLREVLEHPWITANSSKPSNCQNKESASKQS
In words: Ki determination for the inhibition of Aurora-2 (coupled enzyme assay). It is filed as biochemical. Particulars: 70 nM Aurora-2, 800 μM peptide LRRASLG, 30° C. How it is done:
To an assay stock buffer solution containing 0.1 M HEPES 7.5, 10 mM MgCl2, 1 mM DTT, 25 mM NaCl, 2.5 mM phosphoenolpyruvate, […], 30 mg/ml pyruvate kinase, 10 mg/ml lactate dehydrogenase, 40 mM ATP, and 800 μM peptide (LRRASLG, American Peptide, Sunnyvale, Calif.) was added a DMSO solution of a compound of the present invention to a final concentration of 30 μM. The resulting mixture was incubated at 30° C. for 10 min. The reaction was initiated by the addition of 10 μL of Aurora-2 stock solution to give a final concentration of 70 nM in the assay. […] The Ki values were determined from the rate data as a function of inhibitor concentration.

`Cc1cc(Nc2cc(-c3ccccc3)nc(Nc3ccccc3)n2)n[nH]1` [IIIc-1, (5-Methyl-2H-pyrazol-3-yl)-(6-phenyl-2-phenylamino-pyrimidin-4-yl)-amine] yielded a Ki of 100 to 1000 nM.
